Reference: US20240010646A1, “Urea Co-Crystal of Apixaban, and Preparation Method Therefor” (CHENGDU EASTON BIOPHARMACEUTICALS CO., LTD., priority 2021, published 2024)
Values after ≈ are worked out from the molar mass of the structure shown. Read-outs that look alike come from different tables or passages of the source. Each block holds one compound with its values, some of them ahead of it.

Assays:
[1] = In vivo pharmacokinetic test in rat, single oral administration, plasma LC/MS/MS; parameters: species or system SD rats; conditions: for AUClast / Cl_F_obs / Cmax / MRT / T1/2 / Tmax / AUC(0-t) / half-life: corn oil suspension, 4 mL/kg
Experimental: 18 SD rats with 9 male rats and 9 female rats, weighing 220-240 g, purchased by Chengdu Ensiweier Biotechnology Co., Ltd. from Hunan SJA Laboratory Animal Co., Ltd, License: SCXK (Xiang) 2019-0004.
After the test drugs were prepared into […] uniform suspensions with corn oil, they were immediately administered orally to rats at 4 mL/kg, and 0.1 mL of blood was sampled from the jugular vein before the administration and 15 min, 30 min, 1 h, 2 h, 3 h, 4 h, 5 h, 6 h, 7 h, 8 h and 24 h after the administration, placed in EDTA-K2 tubes and centrifuged at 3000 r/min for 10 min. The plasma was separated and stored by freezing at −80° C. in refrigerator.
50 μL of plasma was taken and evenly mixed with 5 μL of working solution or blank diluent, 150 μL of the internal-standard acetonitrile-containing precipitant was added thereto, which was shaken with vortex for 2 min, and centrifuged at 12000 r/min for 10 min. 2 μL of Supernatant was taken and mixed with 200 μL of pure water: acetonitrile (1:1), and then the resultant sample was injected with a volume of 3 μL for analysis.

[2] = Stability test (high temperature, light irradiation, long-term and accelerated storage); assay type: physicochemical
[3] = Equilibrium solubility test (saturated solutions, external standard method); assay type: physicochemical
[4] = female rats, listed as The urea co-crystal A
[5] = male rats, listed as The urea co-crystal A
[6] = female rats, listed as Crystalline form N-1
[7] = female, Sprague-Dawley (SD), rat, plasma, po, 1.25 mg/kg, female rats
[8] = male, Sprague-Dawley (SD), rat, plasma, po, 1.25 mg/kg, male rats

Increase of bioavailability compared with crystalline form N-1 ([1]; female rats): 21%
Increase of bioavailability compared with the urea co-crystal IV from HEC Pharm Co., Ltd ([1]; female rats): 44.98%
AUClast [1, 4]: 33636 ± 8113 ng·h/mL
Cl_F_obs [1, 4]: 7.2 ± 1.9 mL/day/kg
Cmax [1, 4]: 4653 ± 763 ng/mL
MRT [1, 4]: 5.55 ± 0.61 h
T1/2 [1, 4]: 4.49 ± 0.10 h
Tmax [1, 4]: 1.08 ± 0.72 h
Increase of bioavailability compared with crystal form N-1 ([1]; male rats): 29.36%
Increase of bioavailability compared with the urea co-crystal IV from HEC Pharm Co., Ltd ([1]; male rats): 49.94%
AUClast [1, 5]: 25567 ± 14447 ng·h/mL
Cl_F_obs [1, 5]: 10.8 ± 4.8 mL/day/kg
Cmax [1, 5]: 7970 ± 4475 ng/mL
MRT [1, 5]: 4.16 ± 0.41 h
T1/2 [1, 5]: 5.53 ± 2.98 h
Tmax [1, 5]: 1.00 ± 0.00 h
Purity % ([2]; 25 ± 2° C., 60 ± 5% RH, 6 months): 99.92%
Purity % ([2]; 25 ± 2° C., 60 ± 5% RH, Start): 99.93%
Purity % ([2]; 40 ± 2° C., 75 ± 5% RH, 6 months): 99.92%
Purity % ([2]; 40 ± 2° C., 75 ± 5% RH, Start): 99.93%
Purity % ([2]; High Temperature (60° C.), 1 month): 99.92%
Purity % ([2]; High Temperature (60° C.), Start): 99.93%
Purity % ([2]; Light Irradiation, 1 month): 99.93%
Purity % ([2]; Light Irradiation, Start): 99.93%
Crystalline form stability ([2]; all study conditions): good crystalline form stability
solubility ([3]; hydrochloric acid pH 1.0 (0.1N), 25° C.): 48.62 µg/mL
solubility ([3]; hydrochloric acid pH 1.0 (0.1N), 37° C.): 57.33 µg/mL
solubility ([3]; phosphate buffer pH 6.8, 37° C.): 42.74 µg/mL
solubility ([3]; phosphate buffer, 25 °C, pH 6.8, aqueous buffer, thermodynamic from solid, phosphate buffer pH 6.8, 25° C., read-out: Solubility): 37.2 µg/mL
solubility ([3]; pure water, 25° C.): 55.78 µg/mL
solubility ([3]; pure water, 37° C.): 67.98 µg/mL
SMILES: COc1ccc(-n2nc(C(N)=O)c3c2C(=O)N(c2ccc(N4CCCCC4=O)cc2)CC3)cc1 [Co-crystal A]

Cl_F_obs [1, 6]: 13.4 mL/day/kg
Tmax [1, 6]: 5.83 ± 3.75 h
AUC(0-t) [1, 7]: 27800 ± 13000 ng·h/mL
half-life [1, 7]: 6.83 h
Cmax ([1]; female, Sprague-Dawley (SD), rat, plasma, po, 1.25 mg/kg, female rats, read-out: Cmax): 2570 ± 999 ng/mL
MRT ([1]; female, Sprague-Dawley (SD), rat, plasma, po, 1.25 mg/kg, female rats, read-out: MRT): 7.37 ± 1.79 h
Cl_F_obs ([1]; male rats, listed as Crystalline form N-1): 15.4 ± 7.68 mL/day/kg
AUC(0-t) [1, 8]: 19800 ± 14000 ng·h/mL
half-life [1, 8]: 5.05 ± 1.43 h
Cmax ([1]; male, Sprague-Dawley (SD), rat, plasma, po, 1.25 mg/kg, male rats, read-out: Cmax): 4090 ± 3250 ng/mL
MRT ([1]; male, Sprague-Dawley (SD), rat, plasma, po, 1.25 mg/kg, male rats, read-out: MRT): 4.78 ± 0.75 h
Tmax ([1]; male, Sprague-Dawley (SD), rat, plasma, po, 1.25 mg/kg, male rats, read-out: Tmax): 1 ± 0.87 h
solubility ([3]; hydrochloric acid (0.1N), 25 °C, pH 1, simulated gastric fluid, thermodynamic from solid, hydrochloric acid pH 1.0 (0.1N), 25° C., read-out: Solubility): 31.4 µg/mL (≈ 68.4 µM)
solubility ([3]; hydrochloric acid (0.1N), 37 °C, pH 1, simulated gastric fluid, thermodynamic from solid, hydrochloric acid pH 1.0 (0.1N), 37° C., read-out: Solubility): 38.4 µg/mL (≈ 83.6 µM)
solubility ([3]; phosphate buffer pH 6.8, 25° C.): 22.09 µg/mL (≈ 48.1 µM)
solubility ([3]; phosphate buffer, 37 °C, pH 6.8, aqueous buffer, thermodynamic from solid, phosphate buffer pH 6.8, 37° C., read-out: Solubility): 29.4 µg/mL (≈ 63.9 µM)
solubility ([3]; pure water, 25 °C, water, thermodynamic from solid, pure water, 25° C., read-out: Solubility): 36.7 µg/mL (≈ 79.8 µM)
solubility ([3]; pure water, 37 °C, water, thermodynamic from solid, pure water, 37° C., read-out: Solubility): 49.2 µg/mL (≈ 107 µM)
SMILES: COc1ccc(-n2nc(C(N)=O)c3c2C(=O)N(c2ccc(N4CCCCC4=O)cc2)CC3)cc1 [N-1, 1-(4-methoxyphenyl)-7-oxo-6-(4-(2-oxopiperidin-1-yl)phenyl)-4,5,6,7-tetrahydr o-1H-pyrazolo[3,4-c]pyridine-3-carboxamide, reference compound]
